Reference: patent US20080207496A1, “ORGANIC COMPOUND” (priority 2003, published 2008)
Read-outs that look alike come from different tables or passages of the source.

Key:
[1] = target: conventional protein kinase C isoform β (Homo sapiens, UniProt P05771); conditions: cited from earlier work
[2] = system: peripheral blood mononuclear cells; assay: Intracellular calcium kinetics after PHA, flow cytometry (fluo-4/Fura-red); assay type: cell-based, human; conditions: PHA 20 μg/ml; at micromolar concentrations
Method: Intracellular Calcium Kinetics. Human PBMC's are resuspended in calcium-free PBS and loaded with the calcium indicator dyes Fura-red and fluo-4 for 1 hour at room temperature shielded from light. […] At the end of dye loading, cells are washed in PBS and resuspended in RPMI 1640 and placed in growth conditions. One million cells of each sample are then analyzed by a flow cytometer and the mean FL-1 and FL-3 channels recorded every 8 seconds for a total of 240 seconds. At least eight thousand events are acquired during each eight-second interval. PHA (20 μg/ml) was added to activate T cells at time 0 seconds. The ratio FL-1/FL-3 is directly related to the intracellular calcium concentration and is expressed in arbitrary units (AU).

[3] = target: calcium-independent protein kinase C isoform η (Homo sapiens, UniProt P24723); conditions: cited from earlier work
[4] = target: conventional protein kinase C isoform α (Homo sapiens, UniProt P17252); conditions: cited from earlier work
[5] = target: calcium-independent protein kinase C isoform δ (Homo sapiens, UniProt Q05655); conditions: cited from earlier work
[6] = Phase I and II studies in patients with advanced cancer; assay type: in vivo, human; conditions: oral doses at 150 to 300 mg/day
[7] = target: T1, calcium-independent protein kinase C isoform ε (Homo sapiens, UniProt Q02156); conditions: cited from earlier work
T1 sequence (Q02156 1-737): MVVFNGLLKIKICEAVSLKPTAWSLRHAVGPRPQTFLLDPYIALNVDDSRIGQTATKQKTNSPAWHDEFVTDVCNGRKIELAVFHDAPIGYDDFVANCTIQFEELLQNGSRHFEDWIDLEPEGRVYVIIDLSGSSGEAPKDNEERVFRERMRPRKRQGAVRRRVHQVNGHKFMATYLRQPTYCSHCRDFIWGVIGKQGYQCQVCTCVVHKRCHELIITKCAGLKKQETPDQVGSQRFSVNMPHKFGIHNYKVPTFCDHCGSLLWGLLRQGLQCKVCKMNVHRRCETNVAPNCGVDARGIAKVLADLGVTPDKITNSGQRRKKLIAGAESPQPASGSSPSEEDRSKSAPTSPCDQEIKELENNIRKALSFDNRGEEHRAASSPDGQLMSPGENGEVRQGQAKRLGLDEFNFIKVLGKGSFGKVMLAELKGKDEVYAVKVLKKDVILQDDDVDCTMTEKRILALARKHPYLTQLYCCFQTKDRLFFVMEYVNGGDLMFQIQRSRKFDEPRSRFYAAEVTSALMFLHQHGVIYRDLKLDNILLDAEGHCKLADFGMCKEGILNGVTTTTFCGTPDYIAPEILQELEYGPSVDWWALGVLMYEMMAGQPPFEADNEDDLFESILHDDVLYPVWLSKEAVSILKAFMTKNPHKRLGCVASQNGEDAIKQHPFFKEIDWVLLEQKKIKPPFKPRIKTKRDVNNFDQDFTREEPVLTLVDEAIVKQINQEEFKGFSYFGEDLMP

[8] = target: conventional protein kinase C isoform γ (Homo sapiens, UniProt P05129); conditions: cited from earlier work
[9] = system: Peripheral blood mononuclear cells (PBMCs); conditions: ConA +
[10] = system: IL-2 production by CD3+ T cells; conditions: at concentrations less than 0.5 mM
[11] = system: IFN-gamma production by CD3+ T cells; conditions: at concentrations less than 0.5 mM

Chain of conventional protein kinase C isoform β (P05771 whole entry, canonical isoform): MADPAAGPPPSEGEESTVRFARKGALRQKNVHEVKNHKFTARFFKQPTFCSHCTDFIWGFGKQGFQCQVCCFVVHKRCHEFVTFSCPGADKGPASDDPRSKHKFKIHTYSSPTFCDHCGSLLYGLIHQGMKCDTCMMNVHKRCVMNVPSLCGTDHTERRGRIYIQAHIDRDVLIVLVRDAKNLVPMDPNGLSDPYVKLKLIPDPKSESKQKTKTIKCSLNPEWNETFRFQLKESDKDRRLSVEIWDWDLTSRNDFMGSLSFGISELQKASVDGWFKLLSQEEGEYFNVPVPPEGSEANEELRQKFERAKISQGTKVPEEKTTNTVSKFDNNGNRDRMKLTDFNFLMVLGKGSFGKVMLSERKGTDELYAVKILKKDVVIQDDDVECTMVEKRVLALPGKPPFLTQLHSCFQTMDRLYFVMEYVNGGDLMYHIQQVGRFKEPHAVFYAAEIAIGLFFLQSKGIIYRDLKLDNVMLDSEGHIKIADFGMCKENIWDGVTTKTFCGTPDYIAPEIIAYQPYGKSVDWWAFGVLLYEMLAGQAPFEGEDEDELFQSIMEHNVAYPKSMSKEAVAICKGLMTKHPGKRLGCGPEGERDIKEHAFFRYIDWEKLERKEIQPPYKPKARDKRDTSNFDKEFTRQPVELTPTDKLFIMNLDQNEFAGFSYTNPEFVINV
Chain of calcium-independent protein kinase C isoform η (P24723 whole entry, canonical isoform): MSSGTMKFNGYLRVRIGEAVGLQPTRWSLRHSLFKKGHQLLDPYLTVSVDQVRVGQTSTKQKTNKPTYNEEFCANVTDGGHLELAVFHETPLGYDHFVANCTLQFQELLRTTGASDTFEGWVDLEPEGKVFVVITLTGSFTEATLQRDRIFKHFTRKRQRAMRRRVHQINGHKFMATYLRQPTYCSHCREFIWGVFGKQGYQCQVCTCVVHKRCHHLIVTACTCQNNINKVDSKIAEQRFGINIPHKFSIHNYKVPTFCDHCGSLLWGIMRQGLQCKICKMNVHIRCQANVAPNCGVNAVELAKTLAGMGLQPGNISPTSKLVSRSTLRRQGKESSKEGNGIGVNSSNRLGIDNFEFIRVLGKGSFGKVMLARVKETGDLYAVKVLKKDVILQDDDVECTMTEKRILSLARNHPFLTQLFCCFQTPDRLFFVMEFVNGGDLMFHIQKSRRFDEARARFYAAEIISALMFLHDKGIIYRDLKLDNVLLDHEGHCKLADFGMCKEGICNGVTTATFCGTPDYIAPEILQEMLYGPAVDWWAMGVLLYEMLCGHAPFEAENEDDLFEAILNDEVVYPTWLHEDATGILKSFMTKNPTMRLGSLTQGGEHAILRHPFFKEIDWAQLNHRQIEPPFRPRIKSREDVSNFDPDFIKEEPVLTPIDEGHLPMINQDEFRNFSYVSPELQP
Chain of calcium-independent protein kinase C isoform δ (Q05655 whole entry, canonical isoform): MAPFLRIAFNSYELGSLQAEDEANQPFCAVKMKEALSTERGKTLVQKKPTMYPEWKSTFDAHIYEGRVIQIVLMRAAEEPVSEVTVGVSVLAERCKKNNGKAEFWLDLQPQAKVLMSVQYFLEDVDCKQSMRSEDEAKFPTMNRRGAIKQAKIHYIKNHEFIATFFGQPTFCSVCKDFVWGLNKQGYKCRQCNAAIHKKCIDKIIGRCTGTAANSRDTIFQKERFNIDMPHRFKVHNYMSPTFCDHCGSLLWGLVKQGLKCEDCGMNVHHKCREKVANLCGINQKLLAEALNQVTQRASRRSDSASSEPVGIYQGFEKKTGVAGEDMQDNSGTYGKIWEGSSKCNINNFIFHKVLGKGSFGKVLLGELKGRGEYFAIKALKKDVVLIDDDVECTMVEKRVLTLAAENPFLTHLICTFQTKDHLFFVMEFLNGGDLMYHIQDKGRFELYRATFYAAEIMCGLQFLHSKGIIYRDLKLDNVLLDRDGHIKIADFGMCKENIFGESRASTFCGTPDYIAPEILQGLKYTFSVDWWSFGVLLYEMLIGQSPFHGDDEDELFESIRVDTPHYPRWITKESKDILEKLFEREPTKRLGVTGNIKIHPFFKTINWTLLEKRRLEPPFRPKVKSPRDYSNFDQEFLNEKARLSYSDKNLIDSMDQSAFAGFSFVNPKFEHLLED

## CO[C@@H]1[C@H](N(C)C(=O)c2ccccc2)C[C@H]2O[C@]1(C)n1c3ccccc3c3c4c(c5c6ccccc6n2c5c31)C(=O)NC4 [Compound I, midostaurin]
[1]
  inhibition of protein kinase C isoform β (inhibitory concentration): nanomolar concentrations
[2]
  intracellular calcium response to PHA: blunts
[3]
  inhibition of protein kinase C isoform η (inhibitory concentration): nanomolar concentrations
[4]
  inhibition of protein kinase C isoform α (inhibitory concentration): nanomolar concentrations
[5]
  inhibition of protein kinase C isoform δ (inhibitory concentration): nanomolar concentrations
[6]
  serum levels: micromolar range
[7]
  inhibition of protein kinase C isoform ε (inhibitory concentration): nanomolar concentrations
[8]
  inhibition of protein kinase C isoform γ (inhibitory concentration): nanomolar concentrations
[9]; C I 0.05 mM with CsA 50 ng/ml
  cpm (mean 3H-thymidine incorporation): 8472 cpm
[9]; C I 0.05 mM with CsA 100 ng/ml
  cpm (mean 3H-thymidine incorporation): 7307 cpm
[9]; C I 0.05 mM, no CsA
  cpm (mean 3H-thymidine incorporation): 11944 cpm
[9]; C I 0.1 mM with CsA 50 ng/ml
  cpm (mean 3H-thymidine incorporation): 5260 cpm
[9]; C I 0.1 mM with CsA 100 ng/ml
  cpm (mean 3H-thymidine incorporation): 3162 cpm
[9]; C I 0.1 mM, no CsA
  cpm (mean 3H-thymidine incorporation): 9005 cpm
[9]; C I 1 mM with CsA 50 ng/ml
  cpm (mean 3H-thymidine incorporation): 1082 cpm
[9]; C I 1 mM with CsA 100 ng/ml
  cpm (mean 3H-thymidine incorporation): 642 cpm
[9]; C I 1 mM, no CsA
  cpm (mean 3H-thymidine incorporation): 2556 cpm
[10]
  effect on IL-2 production by CD3+ T cells: slightly increases
[11]
  effect on IFN-gamma production by CD3+ T cells: slightly increases
